In ChEMBL document CHEMBL4673282, “Identification of a New Heterocyclic Scaffold for Inhibitors of the Polo-Box Domain of Polo-like Kinase 1” (J Med Chem, 2020):
In brackets after ≈: the same amount, converted by molar mass.

Assays:
[1] = Aqueous solubility of compound; assay type: physicochemical; details: buffer
[2] = Half life in rat liver microsomes at 1 uM measured up to 60 mins in presence of NADPH generating system; details: 1 h
[3] = PAMPA
Description: Permeability of the compound by PAMPA

With `C[C@H]1C[C@@H]1n1c(=O)c2cc(F)ccc2n2c(=S)[nH]nc12` (relative stereo) the solubility [1] was 13.2 µg/mL (≈ 45.5 µM), the t1/2 [2] was greater than 30 min and the permeability [3] was 188 10^-6 cm/s.
